Reference: patent US20180022819A1, “COMPOSITIONS AND METHODS FOR COMBINATION THERAPY WITH PROSTATE-SPECIFIC MEMBRANE ANTIGEN BINDING PROTEINS” (APTEVO RESEARCH AND DEVELOPMENT LLC, priority 2015, published 2018)

Tests used:
[1] = test system: 22Rv1 cells; assay: Chromium-51 release assay of redirected T-cell cytotoxicity against 22Rv1 cells (Example 5); format: cell-based, human; conditions: 22Rv1 cells resistant to enzalutamide, 10 μM enzalutamide pre-treatment
Method: FIG. 3 (top panel) is a graph showing the results of a chromium-51 release assay measuring the effectiveness of the anti-PSMA bispecific molecule TSC249 at inducing redirected T-cell cytotoxicity in 4 hours against enzalutamide-treated and untreated prostate cancer 22Rv1 cells. Percent specific lysis relative to a total lysis control is shown on the y-axis. Concentration (pM) of the anti-PSMA bispecific molecule TSC249 is shown on the x-axis.
To compare the sensitivity of enzalutamide-treated and untreated 22Rv1 prostate cancer cells to target-dependent T-cell cytotoxicity, a bispecific binding molecule targeting PSMA and CD3 was tested in a chromium (^51Cr) release assay using donor T-cells as effector cells. [See, e.g., US 2014/0161800 A1, which describes multispecific binding molecules that bind to prostate-specific membrane antigen (PSMA) and CD3.]
Cytotoxicity was assessed by a ^51Cr release assay. […]
Plates were incubated for 4 hours, spun at 225×g for 3 minutes, and 25 μL of supernatant was transferred from each well to the corresponding well of a 96-well LUMAPLATE® sample plate (Perkin Elmer). Sample plates were allowed to air dry in a chemical safety hood for 18 hours, and then radioactivity was read on a Topcount scintillation counter using a standard protocol. […]

[2] = test system: 22Rv1 cells; assay: Flow cytometry: effect of prolonged enzalutamide treatment on PSMA expression level of 22Rv1 cells (Example 4); format: cell-based, human; conditions: 10 μM enzalutamide
Excerpt: Mean fluorescence intensity (MFI) of bound molecules on live cells is shown on the y-axis. Concentration (nM) of the anti-PSMA monoclonal antibody 107-1A4 labeled with FITC is shown on the x-axis.
22Rv1 cells (PSMA+ at low level) were obtained from ATCC (Manassas, Va.) and cultured according to the ATCC protocol in RPMI-1640 media plus 10% FBS. […] All four cultures were harvested, stained for PSMA with FITC-labeled anti-PSMA monoclonal antibody 107-1A4 (Acris), and PSMA expression assayed by standard flow cytometry procedures. 22Rv1 cells were harvested with trypsin, and placed into FACS buffer (PBS+0.5% BSA [Equitech]+2 mM EDTA [Life Technologies]) at 1×10e6 per ml. FITC-107-1A4 was prepared at 36 nM in FACS buffer, and serially diluted 1:3, before adding 50 μl to 2×10e5 22Rv1 cells which had been pelleted in a 96 well plate. After 30 minute incubation on ice, cells were washed 3 times in FACS buffer, resuspended in FACS buffer, and data acquired on a BD LSRII flow cytometer. The sample files were analyzed using FlowJo software; the median fluorescence intensity (MFI) of the live population of 22Rv1 cells in each well was calculated after gating on live cells (forward vs side scatter). Median fluorescence intensities were fit to a 4-parameter logistic curve and graphed as concentration vs. MFI using GraphPad PRISM® software.

[3] = test system: LNCaP cells; assay: Growth inhibition of LNCaP-GFP cells with primary human T-cells, 4 days, with combination index analysis (Example 6); format: cell-based; conditions: enzalutamide plus TSC249 over a wide range of concentrations, T-cells, 4 days
Method: Additional procedures are described in Example 6. Percentage of live cells relative to an untreated control is shown on the y-axis.
Combination indices can indicate additive effects (CI=1), synergism (CI<1), or antagonism (CI>1).
Overall fluorescent signal from GFP enabled the quantitation of living LNCaP target cells in isolation from T-cells. […] TSC249 was added to have final concentrations of 125, 62.5, 31.25, 15.6, 7.8, 3.9, or 1.95 pM, or none. T-cells from several donors were used in replicate experiments, added at a ratio of 45,000 T-cells to 15,000 LNCaP cells per well.
After 4 days culture at 37° C. in 5% CO2, media was aspirated from wells and […] of 0.4% NP-40 was added to each well. Fluorescent signal from GFP in LNCaP cells adherent in wells was detected by a Spectramax plate reader, reading from the bottom of the wells. […]
The combination index theorem developed by Chou and Talalay was used to determine the interaction between the two compounds in their anti-cancer activity (see Chou, Cancer Res. 2010 Jan. 15; 70(2):440-6; Chou, Pharmacol Rev. 2006 September; 58(3):621-81). For each plate, relative fluorescence units (RFU) of all wells were normalized to the RFU of the well containing cells only, i.e., the proportion of living LNCaP cells in each well was expressed in relation to untreated LNCaP cells. […] Mean values were calculated from three replicates. […]

[4] = test system: LNCaP cells; assay: Effect of enzalutamide on redirected T-cell cytotoxicity in LNCaP cells expressing GFP (Example 1); format: cell-based, human; conditions: enzalutamide alone, […] nM in 0.2% DMSO, no T-cells, 4 days
Method: A titration of the anti-PSMA bispecific molecule TSC249 (protein sequence of SEQ ID NO: 78 in Table 3) was added to all sets of LNCaP cells in the amounts shown on the x-axis. T-cells and DMSO were added to the first set of LNCaP cells (leftmost set of bars). […] No T-cells and DMSO were added to the third set of LNCaP cells (set of bars second from the right). […] LNCaP cell growth (number of live cells) was measured by overall fluorescence and expressed as a fraction of live cells relative to the cells untreated with TSC249 on the y-axis.
LNCaP cells expressing GFP were cultured with donor T-cells at a 3:1 ratio of T-cells to LNCaP target cells for 4 days. […] DMSO alone was added to other samples. A titration of the anti-PSMA bispecific molecule TSC249 (protein sequence of SEQ ID NO: 78 in Table 3) was added to the cell cultures. LNCaP cell growth (number of live cells) was monitored by overall fluorescence.

SMILES: CNC(=O)c1ccc(N2C(=S)N(c3ccc(C#N)c(C(F)(F)F)c3)C(=O)C2(C)C)cc1F [enzalutamide]
- sensitivity of target cells to T-cell mediated lysis [1]: increasing the sensitivity
- MFI from binding of FITC-107-1A4 to the 22Rv1 cells (PSMA expression) ([2]; one week of incubation, vs cells cultured without enzalutamide): increase in the MFI
- MFI from binding of FITC-107-1A4 to the 22Rv1 cells (PSMA expression) ([2]; three weeks of incubation): no additional increases
- MFI from binding of FITC-107-1A4 to the 22Rv1 cells (PSMA expression) ([2]; two weeks of incubation): additional increase in the MFI value
- live cell signal when combined with the other drug [3]: further decrease in live cell signal
- reduction of live cells [4]: ~20%
